Assay results from ChEMBL document CHEMBL1201862, “PubChem BioAssay data set” (2004).
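Step 1: Grow cells in 96-well plates. Step 2: Expose to compound for 48 hours at 5 concentrations. Step 3: Interpolate endpoints linearly; if unreached, use highest concentration. The concentration for 50% growth inhibition is given as GI50.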 Active and inactive are the calls of the source. Cut-off read from the data, not from the text of the source: active = GI50 up to about 1.1 µM and inactive = higher.

Experiments:
Test in all cases: inhibition of tumour cell growth, NCI panel, 48 h
786-0 = test system: 786-0
A498 = test system: A498
A549 = test system: A549
ACHN = test system: ACHN
CAKI-1 = test system: CAKI-1
CCRF-CEM = test system: CCRF-CEM
COLO 205 = test system: COLO 205
DLD-1 = test system: DLD-1
DMS-114 = test system: DMS-114
DMS-273 = test system: DMS-273
EKVX = test system: EKVX
HCC 2998 = test system: HCC 2998
HCT-116 = test system: HCT-116
HCT-15 = test system: HCT-15
HL-60 = test system: HL-60
HOP-62 = test system: HOP-62
HOP-92 = test system: HOP-92
HT-29 = test system: HT-29
IGROV-1 = test system: IGROV-1
K562 = test system: K562
KM-20L2 = test system: KM-20L2
KM12 = test system: KM12
LOX IMVI = test system: LOX IMVI
LXFL 529 = test system: LXFL 529
M14 = test system: M14
M19-MEL = test system: M19-MEL
MOLT-4 = test system: MOLT-4
Malme-3M = test system: Malme-3M
NCI-H226 = test system: NCI-H226
NCI-H23 = test system: NCI-H23
NCI-H460 = test system: NCI-H460
NCI-H522 = test system: NCI-H522
OVCAR-3 = test system: OVCAR-3
OVCAR-4 = test system: OVCAR-4
OVCAR-5 = test system: OVCAR-5
OVCAR-8 = test system: OVCAR-8
RPMI-8226 = test system: RPMI-8226
RXF 393 = test system: RXF 393
RXF 631 = test system: RXF 631
SF-268 = test system: SF-268
SF-295 = test system: SF-295
SF-539 = test system: SF-539
SK-MEL-28 = test system: SK-MEL-28
SK-MEL-2 = test system: SK-MEL-2
SK-MEL-5 = test system: SK-MEL-5
SK-OV-3 = test system: SK-OV-3
SN12C = test system: SN12C
SNB-19 = test system: SNB-19
SNB-75 = test system: SNB-75
SNB-78 = test system: SNB-78
SR = test system: SR
SW-620 = test system: SW-620
TK-10 = test system: TK-10
U-251 = test system: U-251
UACC-257 = test system: UACC-257
UACC-62 = test system: UACC-62
UO-31 = test system: UO-31
XF498 = test system: XF498
HOP-18 = test system: HOP-18

With `CCCCC(C(=O)CCC(=O)Nc1ccc(Cl)cc1)C(=O)C(C)C` (stereo unspecified) the GI50 (786-0) was > 100 µM (inactive), the GI50 (A498) was > 100 µM (inactive) and the GI50 (A549) was > 100 µM (inactive). The GI50 (ACHN) was > 100 µM (inactive), the GI50 (CAKI-1) was > 100 µM (inactive) and the GI50 (CCRF-CEM) was > 100 µM (inactive). The GI50 (COLO 205) was > 100 µM (inactive), the GI50 (DLD-1) was > 100 µM (inactive) and the GI50 (DMS-114) was > 100 µM (inactive). The GI50 (DMS-273) was > 100 µM (inactive), the GI50 (EKVX) was > 100 µM (inactive) and the GI50 (HCC 2998) was > 100 µM (inactive). The GI50 (HCT-116) was > 100 µM (inactive), the GI50 (HCT-15) was greater than 100 µM and the GI50 (HL-60) was > 100 µM (inactive). For the same molecule, the GI50 (HOP-62) was > 100 µM (inactive), the GI50 (HOP-92) was > 100 µM (inactive) and the GI50 (HT-29) was > 100 µM (inactive). For the same molecule, the GI50 (IGROV-1) was > 100 µM (inactive), the GI50 (K562) was 25.1 µM (inactive) and the GI50 (KM-20L2) was > 100 µM (inactive). The GI50 (KM12) was > 100 µM (inactive), the GI50 (LOX IMVI) was 30.5 µM (inactive) and the GI50 (LXFL 529) was 92.7 µM (inactive). The GI50 (M14) was > 100 µM (inactive), the GI50 (M19-MEL) was > 100 µM (inactive) and the GI50 (MOLT-4) was > 100 µM (inactive). The GI50 (Malme-3M) was > 100 µM (inactive), the GI50 (NCI-H226) was > 100 µM (inactive) and the GI50 (NCI-H23) was > 100 µM (inactive). The GI50 (NCI-H460) was > 100 µM (inactive), the GI50 (NCI-H522) was > 100 µM (inactive) and the GI50 (OVCAR-3) was > 100 µM (inactive). For the same molecule, the GI50 (OVCAR-4) was > 100 µM (inactive), the GI50 (OVCAR-5) was > 100 µM (inactive) and the GI50 (OVCAR-8) was > 100 µM (inactive). The GI50 (RPMI-8226) was > 100 µM (inactive), the GI50 (RXF 393) was > 100 µM (inactive) and the GI50 (RXF 631) was > 100 µM (inactive). For the same molecule, the GI50 (SF-268) was > 100 µM (inactive), the GI50 (SF-295) was > 100 µM (inactive) and the GI50 (SF-539) was > 100 µM (inactive). For the same molecule, the GI50 (SK-MEL-28) was > 100 µM (inactive), the GI50 (SK-MEL-2) was > 100 µM (inactive) and the GI50 (SK-MEL-5) was > 100 µM (inactive). The GI50 (SK-OV-3) was > 100 µM (inactive), the GI50 (SN12C) was > 100 µM (inactive) and the GI50 (SNB-19) was > 100 µM (inactive). The GI50 (SNB-75) was > 100 µM (inactive), the GI50 (SNB-78) was > 100 µM (inactive) and the GI50 (SR) was > 100 µM (inactive). For the same molecule, the GI50 (SW-620) was > 100 µM (inactive), the GI50 (TK-10) was > 100 µM (inactive) and the GI50 (U-251) was > 100 µM (inactive). The GI50 (UACC-257) was > 100 µM (inactive), the GI50 (UACC-62) was 18.2 µM (inactive) and the GI50 (UO-31) was > 100 µM (inactive). For the same molecule, the GI50 (XF498) was > 100 µM (inactive).

In the case of `CC(C)(C)c1ccc(Oc2ccc(C#N)c(C#N)c2)c(C(C)(C)C)c1`, the GI50 (786-0) was 52.6 µM (inactive), the GI50 (A498) was > 63.5 µM (inactive) and the GI50 (A549) was 60.4 µM (inactive). For the same molecule, the GI50 (ACHN) was 34.9 µM (inactive), the GI50 (CAKI-1) was 56.4 µM (inactive) and the GI50 (CCRF-CEM) was 23.2 µM (inactive). The GI50 (COLO 205) was 28.3 µM (inactive), the GI50 (DLD-1) was 37 µM (inactive) and the GI50 (DMS-114) was 19.6 µM (inactive). For the same molecule, the GI50 (DMS-273) was 15.2 µM (inactive), the GI50 (EKVX) was 58.2 µM (inactive) and the GI50 (HCC 2998) was 48.9 µM (inactive). The GI50 (HCT-116) was 24.6 µM (inactive), the GI50 (HCT-15) was 14.4 µM and the GI50 (HL-60) was 10.4 µM (inactive). The GI50 (HOP-18) was > 100 µM (inactive), the GI50 (HOP-62) was > 100 µM (inactive) and the GI50 (HOP-92) was 31.8 µM (inactive). The GI50 (HT-29) was 34.3 µM (inactive), the GI50 (IGROV-1) was > 89.7 µM (inactive) and the GI50 (K562) was 21.2 µM (inactive). For the same molecule, the GI50 (KM-20L2) was 44 µM (inactive), the GI50 (KM12) was 29.8 µM (inactive) and the GI50 (LOX IMVI) was 30.6 µM (inactive). For the same molecule, the GI50 (LXFL 529) was 31.2 µM (inactive), the GI50 (M14) was 53 µM (inactive) and the GI50 (MOLT-4) was 17.4 µM (inactive). For the same molecule, the GI50 (Malme-3M) was > 100 µM (inactive), the GI50 (NCI-H226) was 46.6 µM (inactive) and the GI50 (NCI-H23) was 43.6 µM (inactive). For the same molecule, the GI50 (NCI-H460) was 28.8 µM (inactive), the GI50 (NCI-H522) was 17.2 µM (inactive) and the GI50 (OVCAR-3) was 40.1 µM (inactive). For the same molecule, the GI50 (OVCAR-4) was 49.7 µM (inactive), the GI50 (OVCAR-5) was > 21 µM (inactive) and the GI50 (OVCAR-8) was 51.4 µM (inactive). For the same molecule, the GI50 (RPMI-8226) was 17 µM (inactive), the GI50 (RXF 393) was 24.3 µM (inactive) and the GI50 (RXF 631) was > 60.3 µM (inactive). The GI50 (SF-268) was 32.7 µM (inactive), the GI50 (SF-295) was > 58.9 µM (inactive) and the GI50 (SF-539) was > 93.5 µM (inactive). The GI50 (SK-MEL-28) was 51.5 µM (inactive), the GI50 (SK-MEL-2) was 40.6 µM (inactive) and the GI50 (SK-MEL-5) was 31.3 µM (inactive). The GI50 (SK-OV-3) was > 100 µM (inactive), the GI50 (SN12C) was 43 µM (inactive) and the GI50 (SNB-19) was 49.5 µM (inactive). The GI50 (SNB-75) was > 26.3 µM (inactive), the GI50 (SNB-78) was 42.5 µM (inactive) and the GI50 (SR) was 18.7 µM (inactive). The GI50 (SW-620) was 49.3 µM (inactive), the GI50 (TK-10) was > 100 µM (inactive) and the GI50 (U-251) was 33.7 µM (inactive). For the same molecule, the GI50 (UACC-257) was 29.4 µM (inactive), the GI50 (UACC-62) was 52.1 µM (inactive) and the GI50 (UO-31) was 32.7 µM (inactive). The GI50 (XF498) was 12.6 µM (inactive).
